Reference: patent publication US20250264483A1, “IDENTIFICATION OF PROTHROMBOTIC CONDITIONS” (Sydney Local Health District, priority 2020, published 2025)

Tests used:
healthy donor platelets [1] = assay: Procoagulant platelet flow cytometry assay (GSAO+/CD62P+), healthy donor whole blood with HIT patient plasma; assay type: cell-based, human; conditions: for difference in proportion of PP with HIT+ plasma compared to HIT−, no plasma or autologous plasma: agonist alone, absence of exogenous heparin (SFLLRN 5 μM, ADP 20 μM, CRP-xL 2 μg/mL; FIG. 2)
Procedure: (§1) The GSAO-based whole blood PP flow cytometry assay established by the inventors^4 was modified to incorporate patient plasma. Citrated whole blood (13 μL) was incubated with and without agonists, unfractionated heparin (Pfizer) and plasma (5 μL) for 10 minutes with final concentrations of 2.5 mM Gly-Pro-Arg-Pro peptide (Sigma-Aldrich) and 2.5 mM calcium chloride. […] In some experiments, blood was pre-treated with 10 μg/mL IV.3 (StemCell Technologies), a monoclonal antibody against FcγRIIa, for 15 minutes prior to the reaction. Samples were incubated with antibodies to CD45, CD41a, CD62P—or isotype control, and GSAO or GSCA, and fixed before analysis on a BD LSRFortessa X-20.
Representative flow cytometry plots from a single donor comparing no plasma with HIT− or HIT+ plasma indicate that addition of HIT+ plasma altered the sub-population profile of the platelets with a marked increase in procoagulant (GSAO+/CD62P+) platelets (FIG. 1A). […] There was also a smaller but statistically significant increase seen with HIT− plasma compared to no plasma (53.63±6.82 vs 42.05±4.24, P<0.05) (FIG. 1B).

[2] = cited from earlier work
healthy donor platelets [3] = assay: Procoagulant platelet flow cytometry assay, healthy donor whole blood with APS patient plasma; assay type: cell-based, human; conditions: for Average fold-change in procoagulant platelets: APS patient plasma
Procedure: as §1
Citrated whole blood (13 μL) was incubated with platelet agonists and plasma (5 μL) from healthy donors or patients, for 10 minutes with final concentrations of 2.5 mM Gly-Pro-Arg-Pro peptide (Sigma-Aldrich) and 2.5 mM calcium chloride in a 50 μL reaction. […] The reaction was stopped by further dilution with HBSS, followed by staining with antibodies to CD45 (HI30) (StemCell Technologies), CD41a (HIP8) (BD Biosciences), CD62P (Psel.KO2.3) (eBioscience)—or isotype control (eBioscience), and GSAO or control compound GSCA (4-(N—(S-glutathionylacetyl)amino)benzoic acid). Then, samples were fixed with PAMFix (Platelet Solutions Ltd), centrifuged and resuspended, prior to analysis on a BD LSRFortessa X-20 or BD FACSCanto II cytometer with acquisition of 10000 platelet events. Statistical analyses were performed using GraphPad Prism 9, with statistical significance set at p<0.05.

healthy donor platelets [4] = assay: Procoagulant platelet flow cytometry assay, healthy donor whole blood with VITT patient plasma; assay type: cell-based, human; conditions: for proportion of procoagulant platelets: mean±SD
[5] = HIT+ plasma, agonist, no heparin (FIGS. 3B, D), mean±SEM
[6] = HIT+ plasma, combined sample + agonist + therapeutic concentration heparin / high heparin control sample
[7] = HIT+ plasma, combined sample + agonist + therapeutic concentration heparin / no heparin control sample

## Nc1ncnc2c1ncn2[C@@H]1O[C@H](COP(=O)(O)OP(=O)(O)O)[C@@H](O)[C@H]1O [ADP, adenosine diphosphate]
Healthy donor platelets [1]; [5]
  proportion of PP: 5.66±0.79
Healthy donor platelets [1]; [6]
  Average fold-change in procoagulant platelets: 5.5 fold
Healthy donor platelets [1]; [7]
  Average fold-change in procoagulant platelets: 4.4 fold
Healthy donor platelets [1]
  difference in proportion of PP with HIT+ plasma compared to HIT−, no plasma or autologous plasma: no difference

## low-molecular-weight heparin
[2]
  occurrence of HIT in patients receiving the drug: 0.2%

## thrombin: bovine thrombin (Sigma-Aldrich), platelet agonist
Healthy donor platelets [1]; HIT+ plasma, absence of heparin (FIG. 6A, D), thrombin 1 U/mL, CRP-xL 2 μg/mL
  proportion of PP: 18.86±3.94
Healthy donor platelets [1]; HIT− plasma, absence of heparin (FIG. 6A, D), thrombin 1 U/mL, CRP-xL 2 μg/mL
  proportion of PP: 19.55±4.16
Healthy donor platelets [1]; no plasma, absence of heparin (FIG. 6A, D), thrombin 1 U/mL, CRP-xL 2 μg/mL
  proportion of PP: 4.16±0.24
Healthy donor platelets [3]; combined sample / healthy control sample
  Average fold-change in procoagulant platelets: 5.7 fold
Healthy donor platelets [3]; combined sample / healthy control sample + autologous plasma
  Average fold-change in procoagulant platelets: 2.1 fold
Healthy donor platelets [3]; autologous plasma, thrombin stimulation (FIG. 13B)
  increase in procoagulant platelet proportions relative to no plasma: 0.3-5.5%
Healthy donor platelets [3]; plasma from an APS patient collected during plasma exchange, thrombin 1 U/mL, CRP-xL 2 μg/mL (FIG. 14)
  increase in procoagulant platelet response: 4.5 fold

## heparin
Healthy donor platelets [1]; HIT+ plasma, ADP 20 μM, high-dose heparin 100 U/mL
  proportion of PP: 5.16±0.52
Healthy donor platelets [1]; HIT+ plasma, ADP 20 μM, therapeutic-concentration heparin 0.5 U/mL
  proportion of PP: 25.22±5.94
Healthy donor platelets [1]; HIT+ plasma, CRP-xL 2 μg/mL, high-dose heparin 100 U/mL
  proportion of PP: 11.70±2.63
Healthy donor platelets [1]; HIT+ plasma, CRP-xL 2 μg/mL, therapeutic-concentration heparin 0.5 U/mL
  proportion of PP: 26.87±3.58
Healthy donor platelets [1]; HIT+ plasma, SFLLRN 5 μM, high-dose heparin 100 U/mL
  proportion of PP: 4.39±0.35
Healthy donor platelets [1]; HIT+ plasma, SFLLRN 5 μM, therapeutic-concentration heparin 0.5 U/mL
  proportion of PP: 36.53±7.50
Healthy donor platelets [1]; HIT− plasma, therapeutic or high heparin concentrations (FIGS. 3A, C, E)
  difference in PP formation in response to SFLLRN, ADP or CRP-xL: no difference
Healthy donor platelets [1]; heparin 0.5 U/mL or 100 U/mL, HIT+ or HIT− plasma, no platelet agonist (FIG. 2)
  difference in PP proportion compared to basal levels without exogenous plasma: no differences
Healthy donor platelets [4]; high-dose heparin 100 U/mL, HIT plasma, SFLLRN 5 μM (FIG. 10B)
  PP response: 3.48±1.02%
Healthy donor platelets [4]; high-dose heparin 100 U/mL, VITT plasma, SFLLRN 5 μM
  PP response: 3.54±1.41%
Healthy donor platelets [4]; low-dose heparin 0.5 U/mL, VITT plasma, SFLLRN 5 μM (FIG. 10A)
  PP response: 12.48±12.84%
[2]
  occurrence of HIT in patients receiving the drug: up to 3%

## SFLLRN
Healthy donor platelets [1]; [5]
  proportion of PP: 11.19±3.23
Healthy donor platelets [1]; [6]
  Average fold-change in procoagulant platelets: 8.5 fold
Healthy donor platelets [1]; [7]
  Average fold-change in procoagulant platelets: 3.7 fold
Healthy donor platelets [1]
  difference in proportion of PP with HIT+ plasma compared to HIT−, no plasma or autologous plasma: no difference
Healthy donor platelets [4]; SFLLRN 5 μM, ELISA false positive plasma (FIG. 9C)
  PP proportion: 3.93±0.78%
Healthy donor platelets [4]; SFLLRN 5 μM, HIT-like VITT (heparin-enhancing VITT) plasma (FIG. 8B)
  proportion of procoagulant platelets: 23.60±8.768
Healthy donor platelets [4]; SFLLRN 5 μM, VITT negative plasma (FIG. 8B)
  proportion of procoagulant platelets: 2.988±0.9564
Healthy donor platelets [4]; SFLLRN 5 μM, VITT plasma (FIG. 8B)
  proportion of procoagulant platelets: 16.34±13.74
Healthy donor platelets [4]; SFLLRN 5 μM, VITT-negative plasma (FIG. 9C)
  PP proportion: 4.50±2.09%
Healthy donor platelets [4]; SFLLRN 5 μM, healthy donor blood, no plasma (FIG. 9C)
  PP proportion: 3.86±0.97%
Healthy donor platelets [4]; SFLLRN 5 μM, no plasma (FIG. 8B)
  proportion of procoagulant platelets: 3.194±0.8185
Healthy donor platelets [4]; SFLLRN 5 μM, plasma from healthy individuals (FIG. 9C)
  PP proportion: 3.57±1.36%
Healthy donor platelets [3]; APS plasma vs autologous plasma (FIG. 13A, C)
  change in procoagulant response between patient and autologous plasma: No significant change
